Assay results from US20060246095A1, “Multiepitope polypeptides for cancer immunotherapy” (HADASIT MEDICAL RESEARCH SERVICES & DEVELOPMENT LTD., priority 2003, published 2006).

Columns and labels:
[1] = tested on: HHD mice; conditions: HLA-A2.1-restricted; cited from earlier work
[2] = tested on: MHC; conditions: cited from earlier work
[3] = tested on: CTLs in blood lymphocytes of breast carcinoma patients; conditions: personal communications; cited from earlier work
[4] = tested on: T cell clone CK3H6 (A2 restricted gp100 epitope 209-217); experiment: Recognition assay for peptide presentation by DC (IFN-γ release ELISA), T cell clone CK3H6; format: cell-based, human
Experimental: (§1) Dendritic cells were isolated from cytopheresis MNCs of melanoma patients with the HLA haplotypes HIA-A*0201 and HLA-DRβ1*0401. DC were generated from plastic adherent PBMCs cultured in RPMI with 10% human AB-serum, L-glutamine, penicillin-streptomycin, supplemented with GM-CSF 1000 IU/ml and IL-4 1000 IU/ml. By day 6, immature DC were harvested for electroporation.
(§2) 2.5-3×10^6 DC were re-suspended in 100 μl nucleofector solution and added to 5 μg of DNA plasmid in 2-mm electrode gap cuvettes. Transfected DC were immediately plated with CM containing GM/IL4 or let mature using TNFα 100 ng/ml and PGE2 1000 ng/ml. GFP-transfected DCs were collected 16-24 hours later for FACS analysis.
(§3) DC were pulsed with 1 μg/ml of the relevant peptides at 1×10^6 cells/ml. Stimulants were added after 1 hour incubation without washing the peptide.
CK3H6 which recognizes the A2 restricted gp100 epitope 209-217.
(§4) T cell clones were co-incubated with DC in flat 96-well plate for 24 hours. DC were plated immediately after their transfection or pulsing in 6 separated plates, in the presence of GM CSF and IL-4. 1×10^5 T cells were added to 1×10^5 pulsed or transfected DC. In the longitudinal study, T cell clones were added to the transfected/pulsed DC at the following time points: T0=immediately, +12=after 12 hours, 24, 36, 48 and 72 hours. Supernatants were collected after overnight incubation. Interferon gamma release assay was performed to evaluate T cell stimulation using the ELISA method, results are presented in pg/ml.
(§5) Lactacystin was added to DC at concentrations of 25 μM and 50 μM, 4 hours post transfection. DC were incubated with lactacystin for 70 minutes and then washed twice.
(§6) Responding T cells were added after washing the lactacystin and co-incubated. Supernatents were collected after 20 hours.
(§7) For recognition assay of DC epitope presentation, 1×10^5 cells from different T cell clones, that were grown from PBMCs of patients, and were restricted to particular melanoma antigen peptides, were co-incubated with 1×10^5 pulsed or transfected DC, in the presence of GM-CSF and IL-4. T cell clones were added to the transfected/pulsed DC at the following time points: T=0 immediately, T=12, 24, 36, 48, 72 hours. Supernatant was collected after overnight incubation and was subjected to interferon gamma release assay, in order to evaluate the specific T cell activity towards the particular peptide presented by the DC cells.
(§8) The results shown in the following tables represent the amount of Interferon-γ (pg/ml) secreted to the culture medium as an index for T cell stimulation.

[5] = tested on: TIL 1940 (A2 restricted MART-1 epitope 27-35); experiment: Recognition assay for peptide presentation by DC (IFN-γ release ELISA), TIL 1940; format: cell-based, human; conditions: TIL 1940
Experimental: as §1, §2, §3
TIL 1940 which recognizes the A2 restricted MART-1 epitope 27-35.
as §4, §5, §6, §7, §8

[6] = tested on: T cell clone RB-154 (gp100 154-162 peptide); experiment: Recognition assay for peptide presentation by DC (IFN-γ release ELISA), clone RB-154; format: cell-based, human; conditions: control plate; peptide-pulsed DC; clone RB-154
Experimental: as §1, §2, §3, §4, §7, §8

[7] = tested on: T cell clone BR-B8 (DR4-restricted gp100 epitope 44-59); experiment: Recognition assay for peptide presentation by DC (IFN-γ release ELISA), clone BR-B8; format: cell-based, human; conditions: control plate; peptide-pulsed DC; clone BR-B8
Experimental: as §1, §2
pcDNA-MEP and pcDNA-gp100 were co-transfected to detect Class II antigen presentation as an internal control.
BR-B8 which recognizes the DR4-restricted gp100 epitope 44-59.
as §4, §5, §6, §7, §8

[8] = tested on: TIL 1383 (A2 restricted tyrosinase epitope 369-377); experiment: Recognition assay for peptide presentation by DC (IFN-γ release ELISA), TIL 1383; format: cell-based, human; conditions: control plate; peptide-pulsed DC; TIL 1383
Experimental: as §1, §2, §3
TIL 1383 which recognizes the A2 restricted tyrosinase epitope 369-377.
as §4, §5, §6, §7, §8

[9] = tested on: DC with CM (no T cell clone); experiment: Recognition assay, CM in place of a T cell clone (IFN-γ background of DC); format: cell-based, human; conditions: transfected or peptide-pulsed DC, CM instead of T cell clone
Experimental: as §1, §2, §3, §4, §7, §8

[10] = control plate, peptide-pulsed DC, T cell clone CK3H6
[11] = control plate, peptide-pulsed DC

MHC, sequence (P61769 21-119): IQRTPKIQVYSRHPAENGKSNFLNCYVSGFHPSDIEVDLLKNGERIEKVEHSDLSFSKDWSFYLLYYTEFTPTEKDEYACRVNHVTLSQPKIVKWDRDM

MUC1/A7: peptide A7 (NLTISDVSV) of MUC1, SEQ ID NO: 26 (listed as Homo sapiens)
CTL induced upon vaccination, lysis of human carcinoma lines [1]: effectively lysed the human carcinoma lines | MHC-binding affinity [2]: high | activation of CTLs in blood lymphocytes, patients responding [3]: 2/4

MUC1/D6: peptide D6 (LLLTVLTVV) of MUC1, SEQ ID NO: 25 (listed as Homo sapiens)
CTL induced upon vaccination, lysis of human carcinoma lines [1]: effectively lysed the human carcinoma lines | MHC-binding affinity [2]: high | activation of CTLs in blood lymphocytes, patients responding [3]: 3/4

TYR 369-377: peptide 369-377 derived from Tyrosinase, SEQ ID NO: 17
Interferon-γ secreted to the culture medium [4, 10]: 1 pg/mL | Interferon-γ secreted to the culture medium [5, 11]: 1 pg/mL | Interferon-γ secreted to the culture medium [6]: 0 pg/mL | Interferon-γ secreted to the culture medium [7]: 1 pg/mL | Interferon-γ secreted to the culture medium [8]: 69 pg/mL

gp 100 154-162: peptide 154-162 of gp100, SEQ ID NO: 24
Interferon-γ secreted to the culture medium [4, 10]: 7 pg/mL | Interferon-γ secreted to the culture medium [5, 11]: 6 pg/mL | Interferon-γ secreted to the culture medium [6]: >2000 pg/mL | Interferon-γ secreted to the culture medium [7]: 1 pg/mL | Interferon-γ secreted to the culture medium [8]: 6 pg/mL

gp 100 209-217: peptide 209-217 of gp100, SEQ ID NO: 16
Interferon-γ secreted to the culture medium ([9]; Donor 1, T = 12 hours): 9 pg/mL | Interferon-γ secreted to the culture medium ([9]; Donor 1, T = 48 hours): 0 pg/mL | Interferon-γ secreted to the culture medium ([9]; Donor 1, T = 72 hours): 0 pg/mL | Interferon-γ secreted to the culture medium ([9]; Donor 2, T = 12 hours): 8 pg/mL | Interferon-γ secreted to the culture medium ([9]; Donor 2, T = 24 hours): 6 pg/mL | Interferon-γ secreted to the culture medium ([9]; Donor 2, T = 36 hours): 8 pg/mL | Interferon-γ secreted to the culture medium ([9]; Donor 2, T = 48 hours): 0 pg/mL | Interferon-γ secreted to the culture medium ([9]; Donor 2, T = 72 hours): 0 pg/mL | Interferon-γ secreted to the culture medium [4, 10]: >2000 pg/mL | Interferon-γ secreted to the culture medium ([4]; transfected or peptide-pulsed DC, Donor 1, T = 12 hours, CK3H6): >2000 pg/mL | Interferon-γ secreted to the culture medium ([4]; transfected or peptide-pulsed DC, Donor 1, T = 24 hours, CK3H6): 31 pg/mL | Interferon-γ secreted to the culture medium ([4]; transfected or peptide-pulsed DC, Donor 1, T = 36 hours, CK3H6): 12 pg/mL | Interferon-γ secreted to the culture medium ([4]; transfected or peptide-pulsed DC, Donor 1, T = 48 hours, CK3H6): 0 pg/mL | Interferon-γ secreted to the culture medium ([4]; transfected or peptide-pulsed DC, Donor 1, T = 72 hours, CK3H6): 0 pg/mL | Interferon-γ secreted to the culture medium ([4]; transfected or peptide-pulsed DC, Donor 2, T = 12 hours, CK3H6): >2000 pg/mL | Interferon-γ secreted to the culture medium ([4]; transfected or peptide-pulsed DC, Donor 2, T = 24 hours, CK3H6): 18 pg/mL | Interferon-γ secreted to the culture medium ([4]; transfected or peptide-pulsed DC, Donor 2, T = 36 hours, CK3H6): 11 pg/mL | Interferon-γ secreted to the culture medium ([4]; transfected or peptide-pulsed DC, Donor 2, T = 48 hours, CK3H6): 0 pg/mL | Interferon-γ secreted to the culture medium ([4]; transfected or peptide-pulsed DC, Donor 2, T = 72 hours, CK3H6): 0 pg/mL | Interferon-γ secreted to the culture medium [5, 11]: 1 pg/mL | Interferon-γ secreted to the culture medium ([5]; transfected or peptide-pulsed DC, Donor 1, T = 12 hours): 10 pg/mL | Interferon-γ secreted to the culture medium ([5]; transfected or peptide-pulsed DC, Donor 1, T = 24 hours): 1 pg/mL | Interferon-γ secreted to the culture medium ([5]; transfected or peptide-pulsed DC, Donor 1, T = 36 hours): 13 pg/mL | Interferon-γ secreted to the culture medium ([5]; transfected or peptide-pulsed DC, Donor 1, T = 48 hours): 0 pg/mL | Interferon-γ secreted to the culture medium ([5]; transfected or peptide-pulsed DC, Donor 1, T = 72 hours): 0 pg/mL | Interferon-γ secreted to the culture medium ([5]; transfected or peptide-pulsed DC, Donor 2, T = 12 hours): 12 pg/mL | Interferon-γ secreted to the culture medium ([5]; transfected or peptide-pulsed DC, Donor 2, T = 24 hours): 6 pg/mL | Interferon-γ secreted to the culture medium ([5]; transfected or peptide-pulsed DC, Donor 2, T = 36 hours): 7 pg/mL | Interferon-γ secreted to the culture medium ([5]; transfected or peptide-pulsed DC, Donor 2, T = 48 hours): 0 pg/mL | Interferon-γ secreted to the culture medium ([5]; transfected or peptide-pulsed DC, Donor 2, T = 72 hours): 0 pg/mL | Interferon-γ secreted to the culture medium [6]: 1 pg/mL | Interferon-γ secreted to the culture medium [7]: 1 pg/mL | Interferon-γ secreted to the culture medium [8]: 1 pg/mL
